These results are taken from patent US12139492B2 (Endotarget Inc., priority 2021, dated 2024).

Experiment [1] concerns JeKo-1 cells. The experiment in a line: Antiproliferative effect, MTS cell viability assay, JeKo-1 cells. The experiment is classed as cell-based. As to conditions: Homo sapiens; JeKo-1 mantle cell lymphoma cells; read-out: IC50 (anti-proliferation) JeKO-1 cells. The procedure, abridged:
(§1)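 Cells were exposed to compound at 0, 0.001, 0.01, 0.1, 1 and 10 μM for 72 h. Viability was then measured by MTS assay, reading formazan produced by metabolically active cells as absorbance at 490 nm.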

The subject of experiment [2] is Mino cells. The experiment in a line: Antiproliferative effect, MTS cell viability assay, Mino cells. The experiment is classed as cell-based. The settings on record: Homo sapiens, MINO, Mino mantle cell lymphoma cells; read-out: IC50 (anti-proliferation) Mino cells. In outline:
as §1
For orientation: Tetrazolium dyes change colour on reduction, which living cells bring about.

Experiment [3] concerns the target T1, BTK (Homo sapiens, UniProt Q06187). The experiment in a line: BTK degradation, DC50 and Dmax of Table 1 (cell line not given). The experiment is classed as cell-based. On the set-up: endogenous in cells. The settings on record: for DC50: concentration giving 50% reduction of BTK expression level.
The target in experiment [4] is T1, BTK. The experiment in a line: Degradation of BTK protein in Namalwa cells (Western blot; DC50, Dmax). The settings on record: Namalwa B lymphocyte cells, Western blot; for degradation of BTK protein: various concentrations, 24 hours. (A western blot detects proteins with antibodies after separation by electrophoresis.)

T1 sequence (Q06187 whole entry): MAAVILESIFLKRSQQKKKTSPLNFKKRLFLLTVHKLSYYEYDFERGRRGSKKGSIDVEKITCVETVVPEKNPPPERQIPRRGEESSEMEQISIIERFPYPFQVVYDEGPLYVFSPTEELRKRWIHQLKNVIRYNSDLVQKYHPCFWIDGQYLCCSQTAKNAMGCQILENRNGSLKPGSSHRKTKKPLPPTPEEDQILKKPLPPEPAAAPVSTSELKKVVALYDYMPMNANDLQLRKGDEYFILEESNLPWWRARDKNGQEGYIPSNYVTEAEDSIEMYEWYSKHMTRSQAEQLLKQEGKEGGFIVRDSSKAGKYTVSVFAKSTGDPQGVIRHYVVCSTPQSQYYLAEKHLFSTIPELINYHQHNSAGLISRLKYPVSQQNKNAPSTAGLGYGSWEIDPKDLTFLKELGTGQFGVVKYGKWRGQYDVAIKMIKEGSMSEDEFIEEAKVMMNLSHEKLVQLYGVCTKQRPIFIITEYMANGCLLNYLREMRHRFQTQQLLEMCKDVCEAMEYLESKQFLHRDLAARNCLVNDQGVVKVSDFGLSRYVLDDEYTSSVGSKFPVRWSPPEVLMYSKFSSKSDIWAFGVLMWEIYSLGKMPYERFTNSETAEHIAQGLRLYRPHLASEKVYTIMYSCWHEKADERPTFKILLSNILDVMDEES

Usually Dmax stands for the largest share of the target that was removed. A low value points to a partial loss of target. In general, DC50 refers to the concentration at which degradation of the target reaches its halfway point. Read a high DC50 as degradation only at high concentration. For the molecule `Nc1ncnc2c1c(-c1ccc(Oc3ccccc3)cc1)nn2[C@@H]1CCCN(CC2CCN(C(=O)N3CCN(c4ccc5c(c4)C(=O)N(C4CCC(=O)NC4=O)C5=O)CC3)CC2)C1` (stereo partly drawn) [Compound 25, 5-(4-(4-(((R)-3-(4-amino-3-(4-phenoxyphenyl)-1H-pyrazolo(3,4-d)pyrimidin-1-yl)piperidin-1-yl)methyl)piperidine-1-carbonyl)piperazin-1-yl)-2-(2,6-dioxopiperidin-3-yl)isoindoline-1,3-dione], the IC50 in experiment [1] and in experiment [2] was 1 to 10 µM in each case. The Dmax in experiment [3] is above 75%. This molecule returned a DC50 in experiment [3] above 0.05 µM. In addition, the “degradation of BTK protein at 10^−6 M” value in experiment [4] is reported as “degradation”.

`Nc1ncnc2c1c(-c1ccc(Oc3ccccc3)cc1)nn2C1CCN(CC2CCN(C(=O)N3CCC(C4CCN(c5ccc6c(c5)C(=O)N(C5CCC(=O)NC5=O)C6=O)CC4)CC3)CC2)CC1` (centres unmarked) [Compound 39, 5-(1′-(4-((4-(4-amino-3-(4-phenoxyphenyl)-1H-pyrazolo(3,4-d)pyrimidin-1-yl)piperidin-1-yl)methyl)piperidine-1-carbonyl)-(4,4′-bipiperidin)-1-yl)-2-(2,6-dioxopiperidin-3-yl)isoindoline-1,3-dione]: the IC50 in experiment [1] was above 10 µM. For the same molecule, the IC50 in experiment [2] is 1 to 10 µM. In experiment [3], this molecule showed a Dmax above 90% and a DC50 above 0.05 µM. Besides, in experiment [4], the “degradation of BTK protein at 10^−6 M” value was “degradation” and the “degradation of BTK protein” value was “dose-dependent degradation”.

For `Nc1ncnc2c1c(-c1ccc(Oc3ccccc3)cc1)nn2[C@@H]1CCCN(CC2CCN(C(=O)N3CCC(CCN4CCN(c5ccc6c(c5)C(=O)N(C5CCC(=O)NC5=O)C6=O)CC4)CC3)CC2)C1` (stereo partly drawn) [Compound 33, 5-(4-(2-(1-(4-(((R)-3-(4-amino-3-(4-phenoxyphenyl)-1H-pyrazolo(3,4-d)pyrimidin-1-yl)piperidin-1-yl)methyl)piperidine-1-carbonyl)piperidin-4-yl)ethyl)piperazin-1-yl)-2-(2,6-dioxopiperidin-3-yl)isoindoline-1,3-dione], the IC50 in experiment [1] fell in the range of 1 to 10 µM. The IC50 in experiment [2] is 1 to 10 µM. In experiment [3], the Dmax is above 90% and the DC50 was above 0.05 µM. Besides, in experiment [4], the “degradation of BTK protein at 10^−6 M” value is reported as “degradation” and the “degradation of BTK protein” value is on record as “dose-dependent degradation”.

For `Nc1ncnc2c1c(-c1ccc(Oc3ccccc3)cc1)nn2[C@@H]1CCCN(C2CCN(C(=O)N3CCC(C4CCN(c5ccc6c(c5)C(=O)N(C5CCC(=O)NC5=O)C6=O)CC4)CC3)CC2)C1` (stereo partly drawn) [Compound 163, 5-(1′-((R)-3-(4-amino-3-(4-phenoxyphenyl)-1H-pyrazolo(3,4-d)pyrimidin-1-yl)-(1,4′-bipiperidine)-1′-carbonyl)-(4,4′-bipiperidin)-1-yl)-2-(2,6-dioxopiperidin-3-yl)isoindoline-1,3-dione], in experiment [1], the IC50 was above 10 µM. In addition, the IC50 in experiment [2] lay within 1 to 10 µM. Further, in experiment [3], the Dmax is above 75% and the DC50 was above 0.05 µM. Moreover, in experiment [4], the “degradation of BTK protein at 10^−6 M” value is “degradation” and the “degradation of BTK protein” value is given as “dose-dependent degradation”.

With `Nc1ncnc2c1c(-c1ccc(Oc3ccccc3)cc1)nn2C1CCN(C(=O)N2CCC(CN3CCN(c4ccc5c(c4)C(=O)N(C4CCC(=O)NC4=O)C5=O)CC3)CC2)CC1` (centres unmarked) [Compound 85, 5-(4-((1-(4-(4-amino-3-(4-phenoxyphenyl)-1H-pyrazolo(3,4-d)pyrimidin-1-yl)piperidine-1-carbonyl)piperidin-4-yl)methyl)piperazin-1-yl)-2-(2,6-dioxopiperidin-3-yl)isoindoline-1,3-dione], the IC50 in experiment [1] was below 1 µM. For the same molecule, the IC50 in experiment [2] was below 1 µM. In experiment [3], this molecule came in with a Dmax above 90% and a DC50 below 0.01 µM. In addition, in experiment [4], the “degradation of BTK protein at 10^−6 M” value is “degradation” and the “degradation of BTK protein” value is “dose-dependent degradation”.

As for `Nc1ncnc2c1c(-c1ccc(Oc3ccccc3)cc1)nn2[C@@H]1CCCN(C(=O)N2CCC(CN3CCN(c4ccc5c(c4)C(=O)N(C4CCC(=O)NC4=O)C5=O)CC3)CC2)C1` (stereo partly drawn) [Compound 55, 5-(4-((1-((R)-3-(4-amino-3-(4-phenoxyphenyl)-1H-pyrazolo(3,4-d)pyrimidin-1-yl)piperidine-1-carbonyl)piperidin-4-yl)methyl)piperazin-1-yl)-2-(2,6-dioxopiperidin-3-yl)isoindoline-1,3-dione], in experiment [1], the IC50 is below 1 µM. For the same molecule, the IC50 in experiment [2] is below 1 µM. In addition, in experiment [3], the Dmax is above 90% and the DC50 fell in the range of 0.01 to 0.05 µM. In experiment [4], the “degradation of BTK protein at 10^−6 M” value is recorded as “degradation” and the “degradation of BTK protein” value is reported as “dose-dependent degradation”.

For `Nc1ncnc2c1c(-c1ccc(Oc3ccccc3)cc1)nn2C1CCN(C(=O)N2CCC(C3CCN(c4ccc5c(c4)C(=O)N(C4CCC(=O)NC4=O)C5=O)CC3)CC2)CC1` (centres unmarked) [Compound 79, 5-(1′-(4-(4-amino-3-(4-phenoxyphenyl)-1H-pyrazolo(3,4-d)pyrimidin-1-yl)piperidine-1-carbonyl)-(4,4′-bipiperidin)-1-yl)-2-(2,6-dioxopiperidin-3-yl)isoindoline-1,3-dione], the IC50 in experiment [1] and in experiment [2] was above 10 µM each time. This molecule returned a Dmax in experiment [3] above 75%. Besides, the DC50 in experiment [3] was above 0.05 µM. Moreover, the “degradation of BTK protein at 10^−6 M” value in experiment [4] is on record as “degradation”.

Regarding `Nc1ncnc2c1c(-c1ccc(Oc3ccccc3)cc1)nn2C1CCN(C(=O)N2CCC(CCN3CCN(c4ccc5c(c4)C(=O)N(C4CCC(=O)NC4=O)C5=O)CC3)CC2)CC1` (centres unmarked) [Compound 93, 5-(4-(2-(1-(4-(4-amino-3-(4-phenoxyphenyl)-1H-pyrazolo(3,4-d)pyrimidin-1-yl)piperidine-1-carbonyl)piperidin-4-yl)ethyl)piperazin-1-yl)-2-(2,6-dioxopiperidin-3-yl)isoindoline-1,3-dione], the IC50 in experiment [1] is 1 to 10 µM. In addition, the IC50 in experiment [2] was 1 to 10 µM. In experiment [3], this molecule came in with a Dmax above 90% and a DC50 of 0.01 to 0.05 µM. Further, in experiment [4], the “degradation of BTK protein at 10^−6 M” value is listed as “degradation” and the “degradation of BTK protein” value is listed as “dose-dependent degradation”.

Regarding `Nc1ncnc2c1c(-c1ccc(Oc3ccccc3)cc1)nn2[C@@H]1CCCN(C(=O)N2CCC(C3CCN(c4ccc5c(c4)C(=O)N(C4CCC(=O)NC4=O)C5=O)CC3)CC2)C1` (stereo partly drawn) [Compound 49, 5-(1′-((R)-3-(4-amino-3-(4-phenoxyphenyl)-1H-pyrazolo(3,4-d)pyrimidin-1-yl)piperidine-1-carbonyl)-(4,4′-bipiperidin)-1-yl)-2-(2,6-dioxopiperidin-3-yl)isoindoline-1,3-dione], the IC50 in experiment [1] lay within 1 to 10 µM. Further, the IC50 in experiment [2] was in the range of 1 to 10 µM. In experiment [3], this molecule returned a Dmax above 90% and a DC50 of 0.01 to 0.05 µM. For the same molecule, the “degradation of BTK protein at 10^−6 M” value in experiment [4] is “degradation”.

With `Nc1ncnc2c1c(-c1ccc(Oc3ccccc3)cc1)nn2C1CCN(CC2CCN(C(=O)N3CCC(CN4CCN(c5ccc6c(c5)C(=O)N(C5CCC(=O)NC5=O)C6=O)CC4)CC3)CC2)CC1` (centres unmarked) [Compound 41, 5-(4-((1-(4-((4-(4-amino-3-(4-phenoxyphenyl)-1H-pyrazolo(3,4-d)pyrimidin-1-yl)piperidin-1-yl)methyl)piperidine-1-carbonyl)piperidin-4-yl)methyl)piperazin-1-yl)-2-(2,6-dioxopiperidin-3-yl)isoindoline-1,3-dione], the IC50 in experiment [1] is 1 to 10 µM. The IC50 in experiment [2] was below 1 µM. In experiment [3], the Dmax was above 90% and the DC50 was in the range of 0.01 to 0.05 µM. For the same molecule, in experiment [4], the “degradation of BTK protein at 10^−6 M” value is listed as “degradation” and the “degradation of BTK protein” value is on record as “dose-dependent degradation”.

On to `Nc1ncnc2c1c(-c1ccc(Oc3ccccc3)cc1)nn2C1CCN(C(=O)N2CCC(N3CCN(c4ccc5c(c4)C(=O)N(C4CCC(=O)NC4=O)C5=O)CC3)CC2)CC1` (centres unmarked) [Compound 81, 5-(4-(1-(4-(4-amino-3-(4-phenoxyphenyl)-1H-pyrazolo(3,4-d)pyrimidin-1-yl)piperidine-1-carbonyl)piperidin-4-yl)piperazin-1-yl)-2-(2,6-dioxopiperidin-3-yl)isoindoline-1,3-dione], for which the IC50 in experiment [1] and in experiment [2] was above 10 µM throughout. For the same molecule, the Dmax in experiment [3] is above 75%. Also, in experiment [3], the DC50 was above 0.05 µM. In experiment [4], the “degradation of BTK protein” value is “dose-dependent degradation”.

As to `Nc1ncnc2c1c(-c1ccc(Oc3ccccc3)cc1)nn2[C@@H]1CCCN(CC2CCN(C(=O)N3CCC(CN4CCN(c5ccc6c(c5)C(=O)N(C5CCC(=O)NC5=O)C6=O)CC4)CC3)CC2)C1` (stereo partly drawn) [Compound 31, 5-(4-((1-(4-(((R)-3-(4-amino-3-(4-phenoxyphenyl)-1H-pyrazolo(3,4-d)pyrimidin-1-yl)piperidin-1-yl)methyl)piperidine-1-carbonyl)piperidin-4-yl)methyl)piperazin-1-yl)-2-(2,6-dioxopiperidin-3-yl)isoindoline-1,3-dione], in experiment [1], the IC50 was in the range of 1 to 10 µM. Further, the IC50 in experiment [2] lay in the range of 1 to 10 µM. In experiment [3], this molecule returned a Dmax above 90% and a DC50 of 0.01 to 0.05 µM. In addition, in experiment [4], the “degradation of BTK protein at 10^−6 M” value was “degradation” and the “degradation of BTK protein” value is on record as “dose-dependent degradation”.

For `Nc1ncnc2c1c(-c1ccc(Oc3ccccc3)cc1)nn2[C@@H]1CCCN(C(=O)N2CCC(N3CCN(c4ccc5c(c4)C(=O)N(C4CCC(=O)NC4=O)C5=O)CC3)CC2)C1` (stereo partly drawn) [Compound 51, 5-(4-(1-((R)-3-(4-amino-3-(4-phenoxyphenyl)-1H-pyrazolo(3,4-d)pyrimidin-1-yl)piperidine-1-carbonyl)piperidin-4-yl)piperazin-1-yl)-2-(2,6-dioxopiperidin-3-yl)isoindoline-1,3-dione], the IC50 in experiment [1] was below 1 µM. Moreover, in experiment [2], the IC50 is below 1 µM. Also, in experiment [3], the maximal degradation (Dmax) is above 90% and the DC50 is below 0.01 µM. In experiment [4], the “degradation of BTK protein at 10^−6 M” value is reported as “degradation” and the “degradation of BTK protein” value is “dose-dependent degradation”.
